Source: patent US20050026810A1, “Treatment of male sexual dysfunction” (Pfizer Inc., priority 2003, published 2005)
Where “and” joins values, the source holds several entries; their conditions need not be identical. Equal entries are not always repeated.

Legend:
[1] = test system: PCA-induced ejaculation in anaesthetised rats; test: p-chloroamphetamine (PCA)-induced ejaculation and penile erection in anaesthetised rats; assay type: in vivo, rat
Experimental: In order to study penile; erection and ejaculation the method used was based on the methodology taught in Yonezawa et al. (2000) Life Sciences 67, 3031-3039. For ease of reference, this methodology is described below:
Male Sprague Dawley rats, weighing 350-450 g, are used. Prior to the experiments the animals are housed in groups (2 rats per cage) under controlled 12 h light-dark cycle (lights on at 07:00), constant temperature (23±1° C.) and humidity (55±5%). They have free access to standard food pellets and water.
Rats are anesthestised with sodium pentobarbitone (50 mg/kg, i.p.) and are placed in the supine position. The penis is extruded from its sheath and gently held by a wooden applicator positioned at the base of the penis. The test compounds are administered by intravenous infusion and p-chloroamphetamine (PCA) (5-10 mg/kg) is administered i.p. immediately before the sheath retraction and the penile responses, including penile erection, redding and expansion of the penile body, glans erection, engorgement and slight flaring of the glans and cup, glans erection with intense flaring of the glans, are recorded. Latencies from PCA administration to the initial penile response and ejaculation is also measured in seconds.
The effect of a test compound on p-chloroamphetamine (PCA) induced ejaculation is also assessed by weighing the ejaculates accumulated over 30 mins. A suitable method using conscious rats is described in Renyi (1985) Neuropharmacology, Vol. 24. No. 8, pp 697-704.

oxytocin receptors = conditions: read-out: OT; cited from earlier work
[2] = Plasma concentration in the copulatory behaviour study; assay type: in vivo, rat; conditions: 0.05 mgkg^-1 sc, rats
[3] = test system: copulatory behaviour in conscious rats; test: Copulatory behaviour in conscious rats (ejaculatory latency); assay type: in vivo, rat; conditions: 0.05 mgkg^-1 sc
Experimental: For all the sexual behavour tests, the male rats were placed in an observation arena (50-60 cm diameter), starting 5 hours into the dark cycle and observed under red ilumination. Three to four minutes after placing the male in the arena, a receptive female (ovariectomised, oestradiol benzoate/progesterone injection 48 hour before behavioural study) was introduced into the arena and the following parameters noted: • i) ejaculatory latency (EJL; time taken from addition of receptive female into the arena to ejaculation); • ii) copulatory efficiency (CE; ejaculatory latency/the number of ihtromissions to ejaculation, i.e. the number of seconds between intromissions); • iii) intromission frequency (IF; the number of intromissions to ejaculation); • iv) mount frequency (MF; the number of mounts to ejaculation); • v) post ejaculatory interval (PEI; the time taken from ejaculation to the commencement of copulatory behaviour).
Rodent copulatory behaviour is characterised by a series of mounts, with and without vaginal insertion (50-80% of mounts result in intromission [vaginal penetration]) and ejaculation occurs after 6 to 12 intromissions. Each intromission lasts a matter of seconds—it is not possible to quantify intromission length i.e. intravaginal latency. The effect of L-371257 was assessed on a number of copulatory parameters (see above). We have focused ejaculatory latency as a clinical biomarker of time taken to achieve ejaculation.

[4] = molecular target: vasopressin V1a receptors (Rattus norvegicus, UniProt P30560); conditions: cited from earlier work
Sequence of vasopressin V1a receptors (P30560 whole entry): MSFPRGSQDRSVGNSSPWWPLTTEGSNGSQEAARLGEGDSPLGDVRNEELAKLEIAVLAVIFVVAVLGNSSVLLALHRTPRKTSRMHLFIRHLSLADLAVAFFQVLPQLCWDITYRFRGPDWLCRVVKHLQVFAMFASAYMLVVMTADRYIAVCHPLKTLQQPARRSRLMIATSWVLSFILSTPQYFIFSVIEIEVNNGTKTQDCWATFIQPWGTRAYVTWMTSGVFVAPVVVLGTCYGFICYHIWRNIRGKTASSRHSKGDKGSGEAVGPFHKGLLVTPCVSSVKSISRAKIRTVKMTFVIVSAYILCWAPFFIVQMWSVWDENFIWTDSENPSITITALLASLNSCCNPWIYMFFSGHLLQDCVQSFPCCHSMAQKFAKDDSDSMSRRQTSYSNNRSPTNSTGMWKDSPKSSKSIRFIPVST

Compound | time taken for the rats to achieve erection ([1]; anaesthetised rats, PCA) | Ejaculation delayed (near maximal effect) ([1]; free plasma concentration 30.9 nM, intravenous infusion, anaesthetised rats) [%] | ejaculation and penile erection, in words ([1]; plasma conc 11.4 nM and 30.9 nM) | effect on PCA-induced ejaculation ([1]; plasma concentration of 9-31 nM, anaesthetised rats) | Ki (oxytocin receptors) [nM] | Plasma conc [2] [nM] | other effects on copulatory behaviour [3] | increase of ejaculatory latency ([3]; P<0.05 vs vehicle) [%] | Ejaculatory latency ([3]; plasma conc ~30 nM, mean ± sem, n = 8) | Ki [4] [nM]
COC1CCN(Cc2nnc(C3CCN(c4ccccn4)CC3)n2Cc2ccccc2)CC1 [Compound 1, 4-[4-Benzyl-5-(4-methoxy-piperidin-1-ylmethyl)-4H-[1,2,4]triazol-3-yl]-3,4,5,6-tetrahydro-2H-[1,2′]bipyridinyl] | not significantly affected | 100 | * At both of these concentrations Compound 1 delayed ejaculation without affecting penile erection. | significantly delayed | – | – | – | – | – | –
COc1cc(OC2CCN(C(C)=O)CC2)ccc1C(=O)N1CCC(N2C(=O)OCc3ccccc32)CC1 [L-371,257] | – | – | – | – | 19 | ~30 | no other significant effects | 67 | 266 s and 266.4 ± 30.9 s | 3.7
